Source: ChEMBL document CHEMBL3774345, “Synthesis of new diarylamides with pyrimidinyl pyridine scaffold and evaluation of their anti-proliferative effect on cancer cell lines” (Bioorg Med Chem Lett, 2016)

Key:
Type in all cases: functional
NCI-H226 = assay: Cytotoxicity against human NCI-H226 cells assessed as cell growth at 10 uM after 24 hrs by SRB assay; conditions: NCI-H226, 24 h, read-out: Activity
MCF7 = assay: Cytotoxicity against human MCF7 cells assessed as cell growth at 10 uM after 24 hrs by SRB assay; conditions: MCF7, 24 h, read-out: Activity
SK-MEL-28 = assay: Cytotoxicity against human SK-MEL-28 cells assessed as cell growth at 10 uM after 24 hrs by SRB assay; conditions: SK-MEL-28, 24 h, read-out: Activity
EKVX = assay: Cytotoxicity against human EKVX cells assessed as cell growth at 10 uM after 24 hrs by SRB assay; conditions: read-out: Activity
[1] = Cytotoxicity against human PC3 cells assessed as cell growth at 10 uM after 24 hrs by SRB assay; conditions: PC-3, 24 h, read-out: Activity
SK-MEL-5 = assay: Cytotoxicity against human SK-MEL-5 cells assessed as cell growth at 10 uM after 24 hrs by SRB assay; conditions: SK-MEL-5, 24 h, read-out: Activity
[2] = Cytotoxicity against human Caki1 cells assessed as cell growth at 10 uM after 24 hrs by SRB assay; conditions: CAKI-1, 24 h, read-out: Activity
[3] = Cytotoxicity against human SKOV3 cells assessed as cell growth at 10 uM after 24 hrs by SRB assay; conditions: SK-OV-3, 24 h, read-out: Activity
[4] = Cytotoxicity against human HCT116 cells assessed as cell growth at 10 uM after 24 hrs by SRB assay; conditions: HCT-116, 24 h, read-out: Activity
CCRF-CEM = assay: Cytotoxicity against human CCRF-CEM cells assessed as cell growth at 10 uM after 24 hrs by SRB assay; conditions: read-out: Activity
[5] = Cytotoxicity against human OVCAR3 cells assessed as cell growth at 10 uM after 24 hrs by SRB assay; conditions: OVCAR-3, 24 h, read-out: Activity
NCI-H460 = assay: Cytotoxicity against human NCI-H460 cells assessed as cell growth at 10 uM after 24 hrs by SRB assay; conditions: NCI-H460, 24 h, read-out: Activity
NCI-H322M = assay: Cytotoxicity against human NCI-H322M cells assessed as cell growth at 10 uM after 24 hrs by SRB assay; conditions: read-out: Activity
[6] = Cytotoxicity against human HCC2998 cells assessed as cell growth at 10 uM after 24 hrs by SRB assay; conditions: HCC 2998, 24 h, read-out: Activity
786-0 = assay: Cytotoxicity against human 786-0 cells assessed as cell growth at 10 uM after 24 hrs by SRB assay; conditions: 786-0, 24 h, read-out: Activity
[7] = Cytotoxicity against human Hs 578T cells assessed as cell growth at 10 uM after 24 hrs by SRB assay; conditions: read-out: Activity
[8] = Cytotoxicity against human SNB19 cells assessed as cell growth at 10 uM after 24 hrs by SRB assay; conditions: SNB-19, 24 h, read-out: Activity
[9] = Cytotoxicity against human RXF393 cells assessed as cell growth at 10 uM after 24 hrs by SRB assay; conditions: RXF 393, 24 h, read-out: Activity
[10] = Cytotoxicity against human HCT15 cells assessed as cell growth at 10 uM after 24 hrs by SRB assay; conditions: HCT-15, 24 h, read-out: Activity
[11] = Cytotoxicity against human LOXIMVI cells assessed as cell growth at 10 uM after 24 hrs by SRB assay; conditions: LOX IMVI, read-out: Activity
[12] = Cytotoxicity against human SW620 cells assessed as cell growth at 10 uM after 24 hrs by SRB assay; conditions: SW-620, 24 h, read-out: Activity
MDA-MB-231 = assay: Cytotoxicity against human MDA-MB-231 cells assessed as cell growth at 10 uM after 24 hrs by SRB assay; conditions: MDA-MB-231, 24 h, read-out: Activity
[13] = Cytotoxicity against human OVCAR4 cells assessed as cell growth at 10 uM after 24 hrs by SRB assay; conditions: OVCAR-4, 24 h, read-out: Activity
T47D = assay: Cytotoxicity against human T47D cells assessed as cell growth at 10 uM after 24 hrs by SRB assay; conditions: read-out: Activity
[14] = Cytotoxicity against human OVCAR5 cells assessed as cell growth at 10 uM after 24 hrs by SRB assay; conditions: OVCAR-5, 24 h, read-out: Activity
[15] = Cytotoxicity against human RPMI8226 cells assessed as cell growth at 10 uM after 24 hrs by SRB assay; conditions: RPMI-8226, 24 h, read-out: Activity
[16] = Cytotoxicity against human UACC257 cells assessed as cell growth at 10 uM after 24 hrs by SRB assay; conditions: UACC-257, 24 h, read-out: Activity
[17] = Cytotoxicity against human COLO205 cells assessed as cell growth at 10 uM after 24 hrs by SRB assay; conditions: COLO 205, 24 h, read-out: Activity
[18] = Cytotoxicity against human HOP92 cells assessed as cell growth at 10 uM after 24 hrs by SRB assay; conditions: HOP-92, 24 h, read-out: Activity
[19] = Cytotoxicity against human IGROV1 cells assessed as cell growth at 10 uM after 24 hrs by SRB assay; conditions: IGROV-1, 24 h, read-out: Activity
[20] = Cytotoxicity against human UACC62 cells assessed as cell growth at 10 uM after 24 hrs by SRB assay; conditions: UACC-62, 24 h, read-out: Activity
[21] = Cytotoxicity against human SNB75 cells assessed as cell growth at 10 uM after 24 hrs by SRB assay; conditions: SNB-75, 24 h, read-out: Activity
K562 = assay: Cytotoxicity against human K562 cells assessed as cell growth at 10 uM after 24 hrs by SRB assay; conditions: K562, 24 h, read-out: Activity
NCI-H522 = assay: Cytotoxicity against human NCI-H522 cells assessed as cell growth at 10 uM after 24 hrs by SRB assay; conditions: NCI-H522, 24 h, read-out: Activity
[22] = Cytotoxicity against human SF268 cells assessed as cell growth at 10 uM after 24 hrs by SRB assay; conditions: SF-268, 24 h, read-out: Activity
A549 = assay: Cytotoxicity against human A549 cells assessed as cell growth at 10 uM after 24 hrs by SRB assay; conditions: A549, 24 h, read-out: Activity
[23] = Cytotoxicity against human HOP62 cells assessed as cell growth at 10 uM after 24 hrs by SRB assay; conditions: HOP-62, 24 h, read-out: Activity
SK-MEL-2 = assay: Cytotoxicity against human SK-MEL-2 cells assessed as cell growth at 10 uM after 24 hrs by SRB assay; conditions: SK-MEL-2, 24 h, read-out: Activity
A498 = assay: Cytotoxicity against human A498 cells assessed as cell growth at 10 uM after 24 hrs by SRB assay; conditions: A498, 24 h, read-out: Activity

COCCCNc1nc(NC(=O)c2cc(OC)cc(OC)c2)cc(-c2cccnc2)n1 showed a growth at 10 µM (NCI-H226) of 96.5%, a growth at 10 µM (MCF7) of 97.8% and a growth at 10 µM (SK-MEL-28) of 105%. The growth at 10 µM (EKVX) was 105%, the growth at 10 µM [1] was 87.3% and the growth at 10 µM (SK-MEL-5) was 72.4%. For the same compound, the growth at 10 µM [2] was 99.4%, the growth at 10 µM [3] was 105% and the growth at 10 µM [4] was 90.3%. The growth at 10 µM (CCRF-CEM) was 91.7%, the growth at 10 µM [5] was 113% and the growth at 10 µM (NCI-H460) was 95.2%. The growth at 10 µM (NCI-H322M) was 92.8%, the growth at 10 µM [6] was 110% and the growth at 10 µM (786-0) was 83.3%. It also gave a growth at 10 µM [7] of 95.3%, a growth at 10 µM [8] of 98.3% and a growth at 10 µM [9] of 97.7%. It also gave a growth at 10 µM [10] of 90.3%, a growth at 10 µM [11] of 94.5% and a growth at 10 µM [12] of 101%. For the same compound, the growth at 10 µM (MDA-MB-231) was 69.1%, the growth at 10 µM [13] was 108% and the growth at 10 µM (T47D) was 63.8%. For the same compound, the growth at 10 µM [14] was 95.7%, the growth at 10 µM [15] was 69.3% and the growth at 10 µM [16] was 106%. For the same compound, the growth at 10 µM [17] was 109%, the growth at 10 µM [18] was 52.6% and the growth at 10 µM [19] was 102%. The growth at 10 µM [20] was 111%, the growth at 10 µM [21] was 73.1% and the growth at 10 µM (K562) was 86.1%. For the same compound, the growth at 10 µM (NCI-H522) was 76.5%, the growth at 10 µM [22] was 100% and the growth at 10 µM (A549) was 91.2%. It also gave a growth at 10 µM [23] of 91.3%, a growth at 10 µM (SK-MEL-2) of 78.8% and a growth at 10 µM (A498) of 67.7%.

Compound COCCCNc1nc(NC(=O)c2ccc(Cl)cc2C)cc(-c2cccnc2)n1 has a growth at 10 µM (NCI-H226) of 89.1%, a growth at 10 µM (MCF7) of 81.1% and a growth at 10 µM (SK-MEL-28) of 104%. For the same compound, the growth at 10 µM (EKVX) was 108%, the growth at 10 µM [1] was 110% and the growth at 10 µM (SK-MEL-5) was 84.1%. For the same compound, the growth at 10 µM [2] was 99.5%, the growth at 10 µM [3] was 98.4% and the growth at 10 µM [4] was 101%. For the same compound, the growth at 10 µM (CCRF-CEM) was 96.5%, the growth at 10 µM [5] was 117% and the growth at 10 µM (NCI-H460) was 102%. It also gave a growth at 10 µM (NCI-H322M) of 102%, a growth at 10 µM [6] of 103% and a growth at 10 µM (786-0) of 85.4%. It also gave a growth at 10 µM [7] of 103%, a growth at 10 µM [8] of 91.7% and a growth at 10 µM [9] of 91.1%. It also gave a growth at 10 µM [10] of 109%, a growth at 10 µM [11] of 107% and a growth at 10 µM [12] of 109%. The growth at 10 µM (MDA-MB-231) was 94%, the growth at 10 µM [13] was 106% and the growth at 10 µM (T47D) was 89.4%. It also gave a growth at 10 µM [14] of 91.6%, a growth at 10 µM [15] of 90.2% and a growth at 10 µM [16] of 85.7%. It also gave a growth at 10 µM [17] of 111%, a growth at 10 µM [18] of 67% and a growth at 10 µM [19] of 106%. The growth at 10 µM [20] was 109%, the growth at 10 µM [21] was 87.6% and the growth at 10 µM (K562) was 104%. The growth at 10 µM (NCI-H522) was 78.6%, the growth at 10 µM [22] was 104% and the growth at 10 µM (A549) was 79.8%. For the same compound, the growth at 10 µM [23] was 99.3%, the growth at 10 µM (SK-MEL-2) was 107% and the growth at 10 µM (A498) was 109%.

Compound COCCCNc1nc(NC(=O)c2cc(Br)cc(C(F)(F)F)c2)cc(-c2cccnc2)n1 has a growth at 10 µM (NCI-H226) of 91.8%, a growth at 10 µM (MCF7) of 83.8% and a growth at 10 µM (SK-MEL-28) of 98.6%. For the same compound, the growth at 10 µM (EKVX) was 96%, the growth at 10 µM [1] was 70.6% and the growth at 10 µM (SK-MEL-5) was 70.6%. For the same compound, the growth at 10 µM [2] was 81.4%, the growth at 10 µM [3] was 92.2% and the growth at 10 µM [4] was 85.6%. It also gave a growth at 10 µM (CCRF-CEM) of 80.8%, a growth at 10 µM [5] of 109% and a growth at 10 µM (NCI-H460) of 85.7%. For the same compound, the growth at 10 µM (NCI-H322M) was 99.9%, the growth at 10 µM [6] was 114% and the growth at 10 µM (786-0) was 85.8%. The growth at 10 µM [7] was 83%, the growth at 10 µM [8] was 95.9% and the growth at 10 µM [9] was 103%. For the same compound, the growth at 10 µM [10] was 85.9%, the growth at 10 µM [11] was 104% and the growth at 10 µM [12] was 86.9%. For the same compound, the growth at 10 µM (MDA-MB-231) was 75.8%, the growth at 10 µM [13] was 92.3% and the growth at 10 µM (T47D) was 65%. It also gave a growth at 10 µM [14] of 100%, a growth at 10 µM [15] of 65.6% and a growth at 10 µM [16] of 91%. It also gave a growth at 10 µM [17] of 96.4%, a growth at 10 µM [18] of 57.9% and a growth at 10 µM [19] of 91.3%. It also gave a growth at 10 µM [20] of 90.5%, a growth at 10 µM [21] of 115% and a growth at 10 µM (K562) of 73.3%. The growth at 10 µM (NCI-H522) was 83.5%, the growth at 10 µM [22] was 90.5% and the growth at 10 µM (A549) was 82%. The growth at 10 µM [23] was 91.8%, the growth at 10 µM (SK-MEL-2) was 80.6% and the growth at 10 µM (A498) was 76.2%.
